Assay in all cases: DTP human tumour cell line panel, 48 h
In test [1] the test system is 786-0 renal.
In test [2] the test system is A498 renal.
In test [3] the test system is HOP-62 NSCLC.
Test [4] concerns HOP-92 NSCLC.
For test [5], the system named is HS 578T breast.
Test [6] has as its system K-562 leukemia.
Test [7] deals with KM12 colon.
The subject of test [8] is LOX IMVI melanoma.
The test system of test [9] is MDA-MB-231 breast.
Test [10] concerns MDA-N.
Test [11] concerns NCI-H226 lung.
The test system of test [12] is NCI-H460 lung.
The test system of test [13] is NCI/ADR-RES ovarian.
The subject of test [14] is OVCAR-3 ovarian.
Test [15] concerns RXF 393 renal.
Test [16] deals with SF-295 CNS.
For test [17], the system named is SF-539 CNS.
Test [18] deals with SNB-19 CNS.
Test [19] relates to UACC-257 melanoma.
The subject of test [20] is UO-31 renal.

Each structure is given as a SMILES string.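 Exposure lasted 48 hours, with cells grown in 96-well plates and compounds tested at five concentrations. At the TGI there is no net growth.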 A value given as a limit tells only on which side of the number the result lay.

On to `CCOC(=O)C1C(=O)CC1(C)C` (centres undefined), for which the TGI in test [1], in test [2], in [3], in [4], in [5] and in test [6] was above 10 µM throughout. The concentration for total growth inhibition (TGI) in [7], in test [8], in test [9], in test [10], in test [11] and in test [12] was above 10 µM in each case. Besides, the TGI in [13], in [14], in [15], in [16], in test [17] and in test [18] was above 10 µM throughout. In addition, the TGI in test [19] and in [20] was above 10 µM in each case.
For the compound `COC(=O)c1cc2c(cc1CC(Cc1ccc3c(c1)CCCC3)C(=O)OC)CCCC2` (centres undefined), the TGI in test [1], in test [2], in [3], in [4], in [5] and in test [6] was above 100 µM throughout. Further, the TGI in [7], in test [8], in [9], in test [10], in test [11] and in test [12] was above 100 µM in each case. For the same compound, the TGI was above 100 µM in test [13]; above 100 µM in test [14]; 72.9 µM in test [15]; above 100 µM in test [16]; above 100 µM in test [17]; above 100 µM in [18]. For the same compound, the TGI in test [19] and in test [20] was above 100 µM each time.
`O=C(N/N=C\C=C\c1ccc([N+](=O)[O-])o1)C(=O)N/N=C\C=C\c1ccc([N+](=O)[O-])o1`: the TGI in test [1], in [2], in test [3], in test [4], in test [5] and in test [6] was above 100 µM each time. Also, the TGI in test [7], in test [8], in test [9], in test [10], in test [11] and in [12] was above 100 µM each time. Moreover, the TGI was 70.1 µM in test [13]; 55 µM in test [14]; above 100 µM in test [15]; above 100 µM in test [16]; above 100 µM in test [17]; above 100 µM in test [18]. The TGI in test [19] and in [20] was above 100 µM throughout.
Regarding `CCOC(=O)c1cn2c(n1)sc1cc(Cl)ccc12`, the TGI is 26.4 µM in test [1]; above 100 µM in test [2]; 61.6 µM in [3]; above 100 µM in [4]; above 100 µM in test [5]; above 100 µM in test [6]. Also, the TGI in [7] was above 100 µM; in test [8] it was above 100 µM; in [9], above 100 µM; in [10] it was 12.6 µM; in test [11] it was above 100 µM; in [12], above 100 µM. Further, the concentration for total growth inhibition (TGI) in [13] is above 100 µM; in test [14] it was 64.5 µM; in test [15], above 100 µM; in [16], above 100 µM; in test [17], 26 µM; in test [18], 83.2 µM. Also, the total growth inhibition concentration (TGI) in test [19] and in [20] was above 100 µM each time.
In the case of `O=C(c1cccs1)N1CCc2ccccc2C1`, the TGI in test [1], in [2], in test [3], in test [4], in test [5] and in test [6] was above 100 µM each time. The TGI was above 100 µM in [7]; above 100 µM in test [8]; above 100 µM in test [9]; 92.3 µM in test [10]; above 100 µM in [11]; above 100 µM in test [12]. Besides, the total growth inhibition concentration (TGI) in test [13], in test [14], in test [15], in test [16], in test [17] and in test [18] was above 100 µM throughout. Further, the TGI in test [19] and in test [20] was above 100 µM throughout.
As for `O=C(NCP(=O)(c1ccccc1)c1ccccc1)OCc1ccccc1`, the TGI in test [1], in [2], in test [3], in test [4], in test [5] and in [6] was above 100 µM in each case. The TGI in test [7], in test [8], in test [9], in test [10], in test [11] and in test [12] was above 100 µM in each case. The TGI in [13], in test [14], in test [15], in test [16], in test [17] and in test [18] was above 100 µM throughout. The compound further yielded a TGI in test [20] above 100 µM.
Consider `CCOC(C)O[C@H]1C(=O)OCC1(C)C` (some centres undefined), for which the TGI in test [1], in [2], in test [3], in test [4], in test [5] and in test [6] was above 100 µM in each case. For the same compound, the TGI in [7], in test [8], in test [9], in test [10], in test [11] and in test [12] was above 100 µM throughout. The TGI in test [13], in test [14], in [15], in test [16], in test [17] and in [18] was above 100 µM throughout. Besides, the TGI in test [19] and in [20] was above 100 µM in each case.
For `COc1cc2cc3c4cc(OC)c(OC)cc4cc[n+]3c(C)c2cc1OC` (tested in a mixture with another compound), the TGI in [1], in [2], in [3], in [4], in test [5] and in test [6] was above 100 µM throughout. The TGI is above 100 µM in test [7]; above 100 µM in test [8]; above 100 µM in [9]; above 100 µM in test [10]; above 45.6 µM in test [11]; above 100 µM in [12]. Further, the TGI in [13], in [14], in test [15], in [16], in test [17] and in test [18] was above 100 µM throughout. Further, the TGI in test [19] was above 55.5 µM; in test [20], above 100 µM.
For the compound `Cn1c([C@H](C#N)c2ncccc2[N+](=O)[O-])nc2ccccc21`, the TGI in test [1] was above 100 µM; in test [2], above 100 µM; in test [3], 67.6 µM; in test [4] it was above 100 µM; in [5], 75.1 µM; in test [6], above 100 µM. The TGI in test [7], in test [8], in test [9], in [10], in test [11] and in test [12] was above 100 µM throughout. Also, the TGI in test [13] was above 100 µM; in test [14], above 100 µM; in test [15], 97.7 µM; in test [16], above 100 µM; in [17], 95.4 µM; in test [18], above 100 µM. Also, the total growth inhibition concentration (TGI) in [19] and in test [20] was above 100 µM each time.
Consider `CCC(=O)Oc1ccc2c(c1)c(=O)c1c(NCCCN(C)C)ccc3nnn2c31`, for which the TGI is 7.06 µM in test [1]; 18.3 µM in [2]; 16.6 µM in test [3]; 21.3 µM in test [4]; 21.6 µM in [5]; above 100 µM in [6]. For the same compound, the TGI in test [7] turned out to be 18.3 µM; in test [8] it was 2.88 µM; in test [9] it was 19.1 µM; in [10] it was 18.4 µM; in [11], 11.8 µM; in test [12] it was 9.23 µM. Also, the TGI was 18.5 µM in test [13]; 21 µM in [14]; 15.5 µM in [15]; 17.3 µM in test [16]; 13.9 µM in test [17]; 17.3 µM in test [18]. Besides, the values for the TGI in [19] and in test [20] were 23.4 µM and 5.3 µM, respectively.
`O=C1CC(c2cccc([N+](=O)[O-])c2)C2(C(=O)NC(=O)NC2=O)C(c2cccc([N+](=O)[O-])c2)C1` (centres undefined): the TGI in [1], in test [2], in [3], in test [4], in test [5] and in [6] was above 100 µM throughout. Also, the TGI in [7], in [8], in test [9], in test [10], in [11] and in test [12] was above 100 µM throughout. Moreover, the total growth inhibition concentration (TGI) was above 100 µM in test [13]; 58.2 µM in test [14]; 61.1 µM in test [15]; above 100 µM in test [16]; above 100 µM in [17]; above 100 µM in test [18]. Further, the TGI in test [19] and in [20] was above 100 µM throughout.
In the case of `Cc1ccc2c(c1)CC1(Cc3ccccc3C1=O)C2=O` (centres undefined), the TGI in test [1], in test [2], in test [3], in test [4], in test [5] and in test [6] was above 100 µM in each case. Also, the TGI in [7], in test [8], in [9], in [10], in test [11] and in test [12] was above 100 µM in each case. In addition, the TGI in test [13], in test [14], in [15], in test [16], in test [17] and in test [18] was above 100 µM in each case. The TGI in test [19] and in test [20] was above 100 µM throughout.
On to `Nc1nc(-c2ccccc2)cc(-c2ccc(OCc3ccccc3)cc2O)n1`, for which the TGI in test [1], in [2], in test [3], in [4], in test [5] and in test [6] was above 100 µM each time. For the same compound, the TGI in [7], in test [8], in [9], in test [10], in test [11] and in test [12] was above 100 µM each time. For the same compound, the TGI is above 100 µM in [13]; 89.1 µM in [14]; 76.8 µM in test [15]; above 100 µM in test [16]; above 100 µM in test [17]; above 100 µM in test [18]. The TGI in [19] and in [20] was above 100 µM in each case.
Regarding `CC1S/C(=N\N=C2/C(=O)Nc3ccc(Br)cc32)N(C2CCCCC2)C1=O` (centres undefined), the TGI in [1] was 6.01 µM; in test [2] it was 12.5 µM; in [3] it was 4.25 µM; in test [4], 25.4 µM; in test [5], 14.4 µM; in test [6], above 100 µM. Moreover, the TGI is 20.8 µM in test [7]; 13.6 µM in [8]; 6.76 µM in test [9]; above 100 µM in test [10]; 18 µM in test [11]; 18.8 µM in test [12]. Moreover, the TGI in [13] was 15.6 µM; in test [14], 10 µM; in [15] it was 14.9 µM; in test [16] it was 16.8 µM; in test [17] it was 16.3 µM; in [18], 14.8 µM. Moreover, the total growth inhibition concentration (TGI) is above 100 µM in test [19] and 3.08 µM in test [20].

One may read the TGI as the concentration at which net growth stops.

The values above are taken from PubChem BioAssay (NCI).
